Measurements reported in US7119063B2, “Memory-enhancing peptides and the use thereof” (Shanghai Cas Intide Biotech Co., Ltd., priority 2000, dated 2006).

Tested on: learning and memory process of mouse
Experiment: platform-jumping electrical-shock avoidance test, learning and 24 h memory, scopolamine-induced impediment
Assay type: in vivo
Settings: for Memory Results EN / Memory Results RT / Learning Results EN / Learning Results RT: scopolamine 1 mg/kg; for Memory Results EN / Memory Results RT: memory test 24 hrs later; for Learning Results EN / Learning Results RT: training trial
Method: The pharmacological tests of memory-enhancing peptide in this invention have been performed as following: the animals have been divided into three groups: drug administration group, control group and model group, with each group administrated with memory-enhancing peptide, saline and scopolamine respectively. In the test, the groups except control group were injected with scopolamine after the administration of medicine about 50 min., 10 min. later, the training began. First, the animals will be put into reaction box for 3 min. before each trails to familiarize them with the environment. Then, the reaction box are charged with 36V alternating current. When the animal subjects to electrical shock, it will jump up to the central platform to avoid harmful stimulation as a normal response. Most of animals may be return to the copper curdles twice or even more times, but they will jump back to the platform swiftly as the results of electrical shock. Each test trail will be performed for 5 min. and two following indices will be used to represent the learning results: (I) the number of total error (EN) during the whole training period; (2) the reaction time (RT) for the first returning to the copper curdle in the trail. The trails will repeat again 24 hrs later as memory test.

Row | Compound | Memory Results EN (drug 100 μg/kg) | Memory Results RT (drug 100 μg/kg) | Learning Results EN (drug 100 μg/kg, number of total errors) | Learning Results RT (drug 100 μg/kg, reaction time for first return to the copper curdle) | effect on memory and learning impediment induced by scopolamine, compared with model group (0.5 μg and 1 μg/kg, longer incubation period and lesser error numbers, P<0.01) | effect on memory and learning impediment induced by scopolamine, compared with Huperzine A (100 μg/kg) (0.5 μg/kg and 1 μg/kg) | Memory Results EN (drug 0.25 μg/kg) | Memory Results RT (drug 0.25 μg/kg) | Learning Results EN (drug 0.25 μg/kg) | Learning Results RT (drug 0.25 μg/kg) | Memory Results EN (drug 0.5 μg/kg) | Memory Results RT (drug 0.5 μg/kg) | Learning Results EN (drug 0.5 μg/kg) | Learning Results RT (drug 0.5 μg/kg) | Memory Results EN (drug 1 μg/kg) | Memory Results RT (drug 1 μg/kg) | Learning Results EN (drug 1 μg/kg) | Learning Results RT (drug 1 μg/kg) | effect on memory and learning impediment induced by scopolamine (summary of Table 1) (mouse, in vivo)
1 | C/C=C1\[C@H]2C=C(C)C[C@]1(N)c1ccc(=O)[nH]c1C2 [Huperzine A, reference compound] | 0.9 | 231.9 s | 1.3 | 120.5 s | – | – | – | – | – | – | – | – | – | – | – | – | – | – | –
2 | PyroGlu-Asn-Cys(S-Bu^t)-Pro-Arg [MEP-531] | – | – | – | – | obviously improve | better effects than Huperzine A | 0.9 | 197.6 s | 0.3 | 78.8 s | 0.5 | 245.5 s | 0.2 | 241.6 s | 0.3 | 282.8 s | 0.3 | 267.6 s | remarkably ameliorate
